Measured values as given in US7605227B2, “Melanoma antigen peptide analogues” (MannKind Corporation, priority 2005, dated 2009).
“Also recorded” adds a separate entry of the source. Square brackets hold non-standard residues; d marks the D form. Ends that are not written are not given here. Nle = CCCC[C@H](N)C(=O)O; Nva = CCC[C@H](N)C(=O)O

Tests used:
HLA-A*0201 [1] = biological target: T1, HLA-A*0201 (Homo sapiens, UniProt P04439, D140Y/D185E/D98H/E176V/E277Q/G131W/G231S/I119V/I121R/I166T/I218V/L300P/L318F/N151K/N90K/P208A/P217A/Q86G/Q94H/R138H/R169H/T345S); test: Peptide binding using T2 cells (SSX-2 41-49 analogs); conditions: half maximal binding of wild-type peptide relative to analog; native = 1.0
Source text: Thus, at limiting concentrations of peptide, it is a measurement of Kon mostly and at saturation levels of peptide it is a measurement of both Kon and Koff.

[2] = tested on: T cell lines against a natural (non-mutated) epitope (SSX-241-49); test: Cross-reactivity and functional avidity: IFN-gamma from T cell lines against natural SSX-2 41-49 epitope; type: cell-based, HHD transgenic mice; conditions: IFN-gamma from T cell line raised against native SSX-2 41-49; native = 1, lower = more active;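 further: peptide analogs tested ex vivo with competent APCs, IFN-gamma in supernatant measured by ELISA, readouts include minimal triggering concentration, peak effect and concentration at peak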
624.38 melanoma cells = test: Plasmid prime, SSX-2 peptide boost, ex vivo cytotoxicity against human tumor cells; type: in vivo, mice; conditions: ex vivo after boost
Method: Eight groups of mice (n=4) were immunized with plasmid expressing SSX-241-49 natural epitope by direct inoculation into the inguinal lymph nodes with 25 μg in 25 μl of PBS/each lymph node at day 0, 3, 14 and 17. This was followed by two additional peptide boosts (similar amount) at day 28 and 31, using a negative control peptide (Melan A 26-35 “EAA”), natural peptide or analogs as shown in FIG. 9.

HLA-A*0201 [3] = biological target: T1, HLA-A*0201; test: iTopia affinity assay (ED50); type: binding; conditions: PRAME425-433 analogs
Source text: Avidin-coated microtiter plates containing class I monomer loaded with a so-called placeholder peptide were used to evaluate peptide binding, affinity and off-rate. The monomer-coated plates were supplied as part of the iTopia Epitope Discovery System Kit (Beckman Coulter, Inc., San Diego, Calif., USA). Assay buffers, anti-MHC-FITC mAb and beta2-microglobulin and control peptides were also supplied with the kits.
Plates were read on the fluorometer. Sigmoidal dose response curves were generated using Prism software.

[4] = tested on: target cells coated with natural peptide; test: Plasmid prime, SSX-2 peptide boost, in vivo cytotoxicity (CFSE); parameters: species or system HHD mice; conditions: spleen and blood; targets coated with 20 μg/ml and 1 μg/ml natural peptide
Method: Eight groups of mice (n=4) were immunized with plasmid expressing SSX-241-49 natural epitope, by direct inoculation into the inguinal lymph nodes with 25 μg in 25 μl of PBS/each lymph node at day 0, 3, 14 and 17. This was followed by two additional peptide boosts (similar amount) at day 28 and 31, using a negative control peptide (Melan A 26-35 “EAA”), natural peptide or analogs as shown in FIG. 9.
To evaluate the in vivo response against natural peptide, splenocytes were isolated from littermate control HHD mice and incubated with 20 μg/mL or 1 μg/ml of natural peptide for 2 hours. These cells were then stained with CFSE^hi fluorescence (4.0 μM or 1 μM for 15 minutes) and intravenously co-injected into immunized mice with an equal number of control splenocytes stained with CFSE^lo fluorescence (0.4 μM). Eighteen hours later the specific elimination of target cells was measured by removing spleen and PBMC from challenged animals and measuring CFSE fluorescence by flow cytometry. The relative depletion of the populations corresponding to peptide loaded splenocytes was calculated relative to the control (unloaded) population and expressed as % specific lysis. FIGS. 10 (spleen) and 11 (blood) show the in vivo cytotoxicity elicited by the regimens described in FIG. 7.

[5] = tested on: T cells that recognized native PSMA288-297 peptide; test: Peptide immunization with PSMA analogs, IFN-gamma ELISPOT against native peptide; type: in vivo, HHD transgenic mice; conditions: peptide + pI:C intranodal immunization
Method: Groups of HHD transgenic mice (n=8) were immunized with peptide (natural epitope PSMA288-297, or analogs bearing substitutions at primary or secondary anchor residues) by direct inoculation into the inguinal lymph nodes, with 25 μg in 25 μl of PBS+12.5 μg of pI:C to each lymph node at day 0, 3, 14 and 17.
Mice were sacrificed at 10 days after the last boost, and splenocytes prepared and assessed for IFN-γ production by ELISPOT analysis. […] At 48 hours after incubation, the assay was developed and the frequency of cytokine-producing T cells that recognized native PSMA288-297 peptide was automatically counted. The data is represented in FIG. 22 as the number of spot forming colonies/well (mean of triplicates±SD). […] To the extent that the poor immunogenicity of the native epitope reflects tolerance, the improved activity of these analogs represents tolerance breaking.

[6] = tested on: splenocytes stimulated with wild-type peptide NY-ESO-1157-165; test: NY-ESO-1 boost, ex vivo IFN-gamma production by splenocytes (ELISA); type: in vivo, mice; conditions: 10 μM wild-type peptide, 3 and 6 days
Source text: Supernatants were harvested and the concentration of IFN-γ measured by ELISA.

[7] = tested on: target cells coated with wild-type peptide; test: Plasmid prime, NY-ESO-1 peptide boost, in vivo cytotoxicity (CFSE); parameters: species or system HHD mice; conditions: plasmid entrain, peptide amplify; targets coated with wild-type NY-ESO-1 peptide
Method: These cells were then stained with CFSE^hi and CFSE^med fluorescence (4.0 μM or 1 μM, respectively, for 15 minutes) and intravenously co-injected into immunized mice with an equal number of control splenocytes stained with CFSE^lo fluorescence (0.4 μM). Eighteen hours later the specific elimination of target cells was measured by removing the spleens and PBMC from challenged animals and measuring CFSE fluorescence by flow cytometry. The relative depletion of the populations corresponding to peptide loaded splenocytes was calculated relative to the control (unloaded) population and expressed as % specific lysis.

[8] = tested on: T cell line specific for the native epitope (PRAME425-433); test: Cross-reactivity of PRAME425-433 analogs: IFN-gamma from native-epitope-specific T cell line; type: cell-based
Method: The analogs listed in FIGS. 26-28 were tested for various properties such as improved affinity and stability of binding, cross-reactivity with the native epitope, and immunogenicity as follows in Examples 40-48. […] The observed affinities of the analogs are reported as % binding (compared to the positive control) and ED50, and stability of binding as half time of dissociation. Cross reactivity with the native epitope was assessed by using the analog peptides to stimulate IFN-gamma secretion from a T cell line specific for the native epitope, essentially as described in Example 6. The data shown in FIGS. 26-28 were generated by stimulating with analog peptide at approximately 0.3 μM. […] In some cases, the reported values are the average of two determinations.

[9] = tested on: PRAME+ A2+ 624.38 melanoma cells; test: PRAME immunization, ex vivo cytotoxicity against human tumor cells; type: in vivo, HHD transgenic mice; conditions: for ex vivo cytotoxicity against A2+ PRAME+ 624.38 cells, in words: mouse
Method: This was followed by two peptide boosts (2.5 μg) at day 28 and 31, with the analog L426Nva L433Nle.

[10] = tested on: splenocytes stimulated with native peptide; test: pCTLR2 prime, PRAME peptide boost, ex vivo IFN-gamma ELISA; type: in vivo, HHD transgenic mice; conditions: 2.5 μg peptide boost, 10 μg/ml native peptide, 48 hours
[11] = tested on: PRAME425-433-specific T cells; test: pCTLR2 prime, PRAME peptide boost, tetramer/CD8 co-staining; type: in vivo, HHD transgenic mice; conditions: versus boost with negative control peptide
[12] = tested on: native epitope coated cells; test: pCTLR2 prime, PRAME peptide boost, in vivo cytotoxicity (CFSE); parameters: species or system HHD transgenic mice

CC[C@H](C)[C@H](NC(=O)[C@H](Cc1ccc(O)cc1)NC(=O)[C@H](Cc1ccccc1)NC(=O)[C@@H](NC(=O)[C@H](CCCCN)NC(=O)[C@H](CCC(=O)O)NC(=O)[C@H](CO)NC(=O)[C@@H](NC(=O)[C@@H](N)Cc1ccccc1)C(C)C)[C@@H](C)CC)C(=O)O [SSX2 41-49 (K41F, A42V, V49I)]
Relative affinity (1/RA) (HLA-A*0201 [1]): 1.6 | Cross-reactivity and fct avidity (native to analogs)* [2]: 0.3 | cytotoxicity against human tumor cells, in words (624.38 melanoma cells): increased cytotoxicity against human tumor cells

Ala substitution: PRAME425-433 analog with Ala at the PΩ anchor position (SLLQHLIGA; UniProt P78395 425-433, looked up, variant L433A)
ED50 change relative to native peptide (HLA-A*0201 [3]; printed as reduced / less (lower affinity)): more than 10 fold

FASEKIFYV [SSX2 41-49 (K41F)]
Relative affinity (1/RA) (HLA-A*0201 [1]): 1.5 | Cross-reactivity and fct avidity (native to analogs)* [2]: 0.3 | in vivo cytotoxicity (% specific lysis), in words [4]: increased activity relative to the natural peptide

I297Nva: PSMA288-297 analog with Nva for Ile at position 297 [Peptide I297Nva]
IFN-γ ELISPOT response against native epitope, in words [5]: slightly higher (but significant) activity than the native peptide

L158V C165V: NY-ESO-1 157-165 analog, L158V and C165V (SVLMWITQV; UniProt P78358 157-165, looked up, variant L158V C165V)
IFN-gamma production upon ex vivo re-stimulation, in words [6]: increased amounts of IFN-gamma | in vivo cytotoxicity (% specific lysis), in words [7]: effect in the same range with wild-type peptide or the C165V mutant

Lys P1 analog: PRAME425-433 analog with Lys for Ser at P1 (KLLQHLIGL)
IFN-γ elicited, % of the native peptide ([8]; analog peptide at approximately 0.3 μM): 40%

S157F L158V C165V: NY-ESO-1 157-165 analog, triple mutant (FVLMWITQV; UniProt P78358 157-165, looked up, variant S157F L158V C165V)
IFN-gamma production upon ex vivo re-stimulation, in words [6]: increased amounts of IFN-gamma

S157K L158V C165V: NY-ESO-1 157-165 analog, triple mutant (KVLMWITQV; UniProt P78358 157-165, looked up, variant S157K L158V C165V)
in vivo cytotoxicity (% specific lysis), in words [7]: effect in the same range with wild-type peptide or the C165V mutant

SLLQHLIGL [PRAME 425-433, reference compound]
ex vivo cytotoxicity against A2+ PRAME+ 624.38 cells, in words [9]: able to lyse human tumor cells

SNvaLMWITQV (S[Nva]LMWITQV) [Nyeso-1 157-165 (L158Nva, C165V))]
IFN-gamma production upon ex vivo re-stimulation, in words [6]: large levels of IFN-gamma more rapidly | in vivo cytotoxicity (% specific lysis), in words [7]: substantial, constant cytotoxicity

S{Nva}LQHLIG{Nle} (S[Nva]LQHLIG[Nle]) [Prame 425-433 (L426Nva, L433Nle)]
IFN-γ production by splenocytes (ELISA), in words ([10]; listed as L426Nva L433Nle): greater response | IFN-γ production by splenocytes (ELISA), in words ([10]; listed as PRAME425-433 L426Nva L433Nle): significant enhancement of IFN-γ production | IFN-γ production (cross-reactivity) relative to native, in words ([8]; PRAME425-433 analogs at approximately 0.3 μM): significant level of cross-reactivity | expansion of native epitope-specific T cells (tetramer), in words [11]: significantly higher than in mice primed with plasmid and boosted with the negative control peptide | affinity (ED50) / binding characteristics relative to native, in words (HLA-A*0201 [3]): similar, somewhat improved binding characteristics | ex vivo cytotoxicity against A2+ PRAME+ 624.38 cells, in words [9]: cytotoxic immunity against a human tumor cell line; also recorded: significant cytotoxicity against human tumor cells expressing A2 (624.38) | ex vivo cytotoxicity against A2- 624.28 control cells, in words ([9]; negative control cells): no significant activity | in vivo cytotoxicity against native epitope, in words [12]: cytotoxic immunity against native epitope coated cells; also recorded: capable of expanding the immunity against the native epitope

T{Nva}LQHLIG{Nle} (T[Nva]LQHLIG[Nle]) [S425T L426Nva L433Nle]
IFN-γ production by splenocytes (ELISA), in words [10]: ex vivo cytokine production | expansion of native epitope-specific T cells (tetramer), in words [11]: significantly higher than in mice primed with plasmid and boosted with the negative control peptide | in vivo cytotoxicity against native epitope, in words [12]: capable of expanding the immunity against the native epitope

YASEKIFYV [SSX2 41-49 (K41Y)]
Relative affinity (1/RA) (HLA-A*0201 [1]): 1.7 | Cross-reactivity and fct avidity (native to analogs)* [2]: 3 | in vivo cytotoxicity (% specific lysis), in words [4]: increased activity relative to the natural peptide

{Abu}LPSIPVHPI [Peptide G288Abu]
IFN-γ ELISPOT response against native epitope, in words [5]: slightly higher (but significant) activity than the native peptide
